Biological target: T1, TRPC3 (Homo sapiens, UniProt Q13507)
T1 construct: expressed in transfected cells
T1 sequence (Q13507 1-921): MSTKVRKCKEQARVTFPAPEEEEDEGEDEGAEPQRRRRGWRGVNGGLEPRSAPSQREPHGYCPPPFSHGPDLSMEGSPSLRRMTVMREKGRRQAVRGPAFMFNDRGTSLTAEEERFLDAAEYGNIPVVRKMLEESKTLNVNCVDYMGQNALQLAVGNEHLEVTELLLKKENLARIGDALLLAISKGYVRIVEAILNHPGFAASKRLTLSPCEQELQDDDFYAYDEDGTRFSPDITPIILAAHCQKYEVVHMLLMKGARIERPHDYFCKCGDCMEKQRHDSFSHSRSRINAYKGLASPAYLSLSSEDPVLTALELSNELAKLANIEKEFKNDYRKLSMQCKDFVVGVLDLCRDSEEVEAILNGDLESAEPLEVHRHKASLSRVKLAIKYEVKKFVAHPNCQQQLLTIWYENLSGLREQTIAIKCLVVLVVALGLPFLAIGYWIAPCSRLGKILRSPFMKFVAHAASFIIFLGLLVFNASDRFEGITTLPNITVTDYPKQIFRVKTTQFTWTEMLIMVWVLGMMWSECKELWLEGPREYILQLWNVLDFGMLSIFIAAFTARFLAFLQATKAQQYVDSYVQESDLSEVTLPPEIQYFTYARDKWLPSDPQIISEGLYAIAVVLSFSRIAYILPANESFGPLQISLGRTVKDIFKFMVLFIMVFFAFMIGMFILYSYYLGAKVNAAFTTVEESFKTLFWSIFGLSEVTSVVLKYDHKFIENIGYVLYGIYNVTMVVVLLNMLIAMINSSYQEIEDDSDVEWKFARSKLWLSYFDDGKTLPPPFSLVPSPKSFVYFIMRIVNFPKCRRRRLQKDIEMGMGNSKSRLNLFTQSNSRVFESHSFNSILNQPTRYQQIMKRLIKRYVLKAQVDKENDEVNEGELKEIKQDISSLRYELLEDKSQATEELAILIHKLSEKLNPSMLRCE
Assay: OAG-induced Ca2+ entry in Fura2-loaded HEK293 cells expressing TRPC3
Assay type: cell-based
Conditions: ELP-004 0 to 1 mM for 10 minutes before OAG, FIG. 1D, read-out: IC50, inhibition of OAG-induced Ca2+ entry
Description: Inhibition of DAG-mediated TRPC activation. To determine if ELP-004 (N-MeDCPA) inhibits DAG-induced TRPC activation, HEK293 cells expressing TRPC3, TRPC6 or TRPC7 were loaded with Fura2 and incubated with ELP-004 (0 to 1 mM) for 10 minutes prior to challenging with 1-Oleoyl-2-acetyl-sn-glycerol (OAG), a membrane permeable form of diacylglycerol.
Cell Culture—HEK293 cells were grown in DMEM with 4.5 g/L glucose supplemented with 10% FBS and 1% Gentamycin (Full DMEM media; Thermo-Fisher Scientific, Waltham, MA) at 37° C. and 5% CO2. […]
TRPC activity assay—Cells grown on glass coverslips were incubated in a cation-safe buffer (107 mM NaCl, 7.2 mM KCl, 1.2 mM MgCl2, 11.5 mM Glucose, 20 mM HEPES-NaOH, 1 mM CaCl2), pH 7.2) and loaded with Fura2-acetoxymethylester (Fura2-AM; 2 μM) for 30 min at 24° C. as previously described^10,11. […] Ca^2+/Sr^2+ measurements were taken using a Leica DMI 6000B fluorescence microscope controlled by Slidebook software (Intelligent Imaging Innovations, Denver, CO). Fluorescence emission at 505 nm was monitored in response to excitation at alternating 340 nm and 380 nm wavelengths at a frequency of 0.67 Hz; intracellular Ca^2+ measurements are shown at 340/380 nm ratios obtained from groups of 35-45 single cells.

CCC(=O)N(C)c1ccc(Cl)c(Cl)c1 [ELP-004, N-(3,4-dichlorophenyl)-N-methylpropanamide]
IC50: 1 to 2 µM

Source: patent US20240058283A1, “THE MODE OF ACTION OF N-MeDCPA ON TRPC CHANNELS” (West Virginia University Board of Governors on Behalf of …, priority 2022, published 2024)
